We go through 21 compounds from publication PMC6736568, “Discovery of Novel Anti-cryptosporidial Activities From Natural Products by in vitro High-Throughput Phenotypic Screening” (Frontiers in Microbiology, 2019).

One series is described as follows: in vitro. The note with it: for cytotoxicity at 41 h, 10 µM: human.
A further series relates to Cryptosporidium parvum. Put plainly: qRT-PCR assay of the growth of C. parvum in vitro in HCT-8 host cells (primary and secondary screening, EC50). The note with it: Cryptosporidium parvum, HCT-8; for inhibition at 10 µM: primary screening at 10 uM, read-out: Inhibition (%); for inhibition at 3.3 µM: secondary screening at 3.3 uM, read-out: % Inhibition (3.3 uM). The series is classed as cell-based. A general note: Real-time PCR tracks product formation cycle by cycle.

[1] abbreviates: primary screening at 10 uM, treated vs control.

Counter-ions that a name gives are not always drawn. Like-named read-outs stand apart in the source and are kept apart here.

In the case of `CC(C)=CCC/C(C)=C\CO` [NEROL], the “Hs18S ΔCT” value with HCT-8 host cells (Hs18S) (human, 41 h, 10 μM) was found to be 0.43. Moreover, the cytotoxicity at 41 h, 10 µM in “in vitro” turned out to be 25.8%. Also, the inhibition (as a rule, the drop in the measured response relative to a control, in per cent) at 10 µM with Cryptosporidium parvum was -20.6%.

For the compound `NC(=O)c1cccnc1` [NIACINAMIDE], the “Hs18S ΔCT” value in the series on HCT-8 host cells (Hs18S) (human, 41 h, 10 μM) is -0.05. Also, in “in vitro”, the cytotoxicity at 41 h, 10 µM was -3.6%. For the same compound, the inhibition at 10 µM in the series on Cryptosporidium parvum was -9.59%.

Consider `O=C(O)c1cccnc1` [NIACIN], for which, in the series with HCT-8 host cells (Hs18S) (human, 41 h, 10 μM), the “Hs18S ΔCT” value is on record as 0.08. For the same compound, the cytotoxicity at 41 h, 10 µM in the series “in vitro” stood at 5.3%. Further, in the series on Cryptosporidium parvum, the inhibition at 10 µM was -6.7%.

For `COc1ccc(-c2cc(=O)c3c(OC)c(OC)c(OC)c(OC)c3o2)cc1OC` [NOBILETIN], the “Hs18S ΔCT” value with HCT-8 host cells (Hs18S) (human, 41 h, 10 μM) worked out at 0.26. Moreover, in the series “in vitro”, the cytotoxicity at 41 h, 10 µM came out at 16.2%. In addition, in the series on Cryptosporidium parvum, the inhibition at 10 µM amounted to 94.6% and the inhibition at 3.3 µM was -25%.

For the compound `CCCCC[C@H](CC(=O)O)C(=O)O` [NONIC ACID], the “Hs18S ΔCT” value in the series on HCT-8 host cells (Hs18S) (human, 41 h, 10 μM) is 0.06. The cytotoxicity at 41 h, 10 µM in “in vitro” was found to be 3.9%. The inhibition at 10 µM in the series with Cryptosporidium parvum is -17.1%.

As to `Cc1cc(O)c(C=O)c2c1C(=O)Oc1c(C)c(O)c3c(c1O2)C(O)OC3=O` (stereo not shown) [NORSTICTIC ACID], the “Hs18S ΔCT” value with HCT-8 host cells (Hs18S) (human, 41 h, 10 μM) is -0.18. In addition, the cytotoxicity at 41 h, 10 µM in the series “in vitro” is -13.4%. Moreover, the inhibition at 10 µM in the series on Cryptosporidium parvum was -20.8%.

As for `COc1ccc2c(c1OC)C(=O)O[C@@H]2[C@H]1c2c(cc3c(c2OC)OCO3)CCN1C` [NOSCAPINE HYDROCHLORIDE], the “Hs18S ΔCT” value in the series on HCT-8 host cells (Hs18S) (human, 41 h, 10 μM) was determined as 0.30. For the same compound, the cytotoxicity at 41 h, 10 µM in “in vitro” amounted to 18.9%. The inhibition at 10 µM in the series on Cryptosporidium parvum is -51.6%.

On to `CO[C@@H]1[C@@H](OC(N)=O)[C@@H](O)[C@H](Oc2ccc3c(O)c(NC(=O)c4ccc(O)c(CC=C(C)C)c4)c(=O)oc3c2C)OC1(C)C` [NOVOBIOCIN SODIUM], for which, in the series on HCT-8 host cells (Hs18S) (human, 41 h, 10 μM), the “Hs18S ΔCT” value was determined as 0.10. Moreover, the cytotoxicity at 41 h, 10 µM in the series “in vitro” is 6.5%. Further, the inhibition at 10 µM with Cryptosporidium parvum was -13.6%.

Consider `C=C(C)[C@H]1COc2cc3oc(=O)ccc3cc2O1` [OBLIQUIN], for which the “Hs18S ΔCT” value in the series on HCT-8 host cells (Hs18S) (setting [1]) is recorded as -0.33. Moreover, the cytotoxicity at 10 µM in the series “in vitro” is -25.7%. Further, the inhibition at 10 µM in the series on Cryptosporidium parvum was 1.63%.

For `COC1=CC(=O)C(O)=C/C1=C\C=C\c1ccccc1` [OBTUSAQUINONE], the “Hs18S ΔCT” value with HCT-8 host cells (Hs18S) (human, 41 h, 10 μM) stood at 0.84. Moreover, the cytotoxicity at 41 h, 10 µM in “in vitro” worked out at 44.3%. In the series on Cryptosporidium parvum, the inhibition at 10 µM was found to be 87.1% and the inhibition at 3.3 µM is -92%.

For `NCC(O)c1ccc(O)cc1` (stereo not shown) [OCTOPAMINE HYDROCHLORIDE], the “Hs18S ΔCT” value in the series on HCT-8 host cells (Hs18S) (human, 41 h, 10 μM) is recorded as -0.21. Also, the cytotoxicity at 41 h, 10 µM in the series “in vitro” was -15.8%. Further, in the series on Cryptosporidium parvum, the inhibition at 10 µM turned out to be 85.1% and the inhibition at 3.3 µM is -12%.

With `CO[C@H]1C[C@H](O[C@H]2[C@H](C)[C@@H](O[C@@H]3O[C@H](C)C[C@H](N(C)C)[C@H]3O)[C@@H](C)C[C@@]3(CO3)C(=O)[C@H](C)[C@@H](O)[C@@H](C)[C@@H](C)OC(=O)[C@@H]2C)O[C@@H](C)[C@@H]1O` [OLEANDOMYCIN PHOSPHATE], the “Hs18S ΔCT” value in the series on HCT-8 host cells (Hs18S) (human, 41 h, 10 μM) is recorded as 3.02. In the series “in vitro”, the cytotoxicity at 41 h, 10 µM worked out at 87.6%. For the same compound, the inhibition at 10 µM with Cryptosporidium parvum turned out to be 17.6%.

Regarding `COc1ccc(CC(=O)c2ccc(O)cc2O)cc1` [ONONETIN], the “Hs18S ΔCT” value with HCT-8 host cells (Hs18S) (human, 41 h, 10 μM) was -0.18. Further, the cytotoxicity at 41 h, 10 µM in “in vitro” was -12.9%. Besides, in the series with Cryptosporidium parvum, the inhibition at 10 µM stood at 8.27%.

Regarding `O=C(O)c1cc(=O)[nH]c(=O)[nH]1` [OROTIC ACID], the “Hs18S ΔCT” value with HCT-8 host cells (Hs18S) (human, 41 h, 10 μM) is on record as -0.39. In addition, in “in vitro”, the cytotoxicity at 41 h, 10 µM is -31.1%. For the same compound, the inhibition at 10 µM in the series on Cryptosporidium parvum is 8.85%.

For the compound `CCOC(=O)c1c(C)cc(O)cc1O` [ORSELLINIC ACID, ETHYL ESTER], in the series on HCT-8 host cells (Hs18S) (human, 41 h, 10 μM), the “Hs18S ΔCT” value is -0.12. Besides, in the series “in vitro”, the cytotoxicity at 41 h, 10 µM is -8.3%. Moreover, the inhibition at 10 µM in the series with Cryptosporidium parvum came to 23.7%.

`Cc1cc(O)cc(O)c1C(=O)O` [ORSELLINIC ACID]: the “Hs18S ΔCT” value in the series with HCT-8 host cells (Hs18S) (setting [1]) is -0.25. In addition, the cytotoxicity at 41 h, 10 µM in “in vitro” was -19.3%. Besides, the inhibition at 10 µM with Cryptosporidium parvum turned out to be 37.5%.

As for `CC(C)=CCc1c2c(c3occ(-c4ccc(O)cc4)c(=O)c3c1O)C=CC(C)(C)O2` [OSAJIN], the “Hs18S ΔCT” value in the series on HCT-8 host cells (Hs18S) (human, 41 h, 10 μM) is reported as -1.06. For the same compound, the cytotoxicity at 41 h, 10 µM in “in vitro” was -108%. In addition, the inhibition at 10 µM in the series on Cryptosporidium parvum was -1.77%.

Regarding `CC(=O)O[C@H]1C(=O)[C@@]2(C)[C@H]([C@H](OC(=O)c3ccccc3)[C@]3(O)C[C@H](OC(=O)[C@H](O)[C@@H](NC(=O)c4ccccc4)c4ccccc4)C(C)=C1C3(C)C)[C@]1(OC(C)=O)CO[C@@H]1C[C@@H]2O` [PACLITAXEL], in the series with HCT-8 host cells (Hs18S) (human, 41 h, 10 μM), the “Hs18S ΔCT” value stood at 0.65. The cytotoxicity at 41 h, 10 µM in the series “in vitro” is 36.1%. Also, in the series with Cryptosporidium parvum, the inhibition at 10 µM worked out at 86.6% and the inhibition at 3.3 µM was 93%.

Regarding `COc1ccc(C(C)=O)c(O)c1` [PAEONOL], the “Hs18S ΔCT” value in the series with HCT-8 host cells (Hs18S) (human, 41 h, 10 μM) is listed as 0.01. For the same compound, in the series “in vitro”, the cytotoxicity at 41 h, 10 µM worked out at 0.8%. Further, in the series with Cryptosporidium parvum, the inhibition at 10 µM is -10.4%.

Take `COc1cc2c(cc1OC)-c1cc3ccc(OC)c(OC)c3c[n+]1CC2` [PALMATINE CHLORIDE]: the “Hs18S ΔCT” value with HCT-8 host cells (Hs18S) (human, 41 h, 10 μM) is -0.09. The cytotoxicity at 41 h, 10 µM in “in vitro” is -6.1%. Besides, the inhibition at 10 µM in the series with Cryptosporidium parvum was 9.29%.

Regarding `CCCCCCCCCCCCCCCC(=O)NCCO` [PALMIDROL], in the series on HCT-8 host cells (Hs18S) (human, 41 h, 10 μM), the “Hs18S ΔCT” value worked out at 0.05. The cytotoxicity at 41 h, 10 µM in “in vitro” is 3.5%. In addition, in the series with Cryptosporidium parvum, the inhibition at 10 µM is -7.35%.
